Results as given in patent US7335663B2, “Heteroaryl compounds which inhibit leukocyte adhesion mediated by α4 integrins” (Elan Pharmaceuticals, Inc., priority 2002, dated 2008).

How the values were obtained:
α4β1 Integrin = molecular target: T1, α4β1 Integrin (Homo sapiens, UniProt P05556+P13612); assay: α4β1 Integrin Adhesion Assay: Jurkat cell adhesion to human plasma fibronectin; format: cell-based; settings: Jurkat cells
T1 construct: endogenous in cells; host or cells: Jurkat cells
Method: 96 well plates (Costar 3590 EIA plates) were coated with human fibronectin (Gibco/BRL, cat #33016-023) at a concentration of 10 μg/mL overnight at 4° C. The plates were then blocked with a solution of bovine serum albumin (BSA; 0.3%) in saline. Jurkat™ cells (maintained in log phase growth) were labeled with Calcein AM according to the manufacturer's instructions, and suspended at a concentration of 2×10^6 cells/mL in Hepes/Saline/BSA. The cells were then exposed to test and control compounds for 30 minutes at room temperature before transfer to individual wells of the fibronectin coated plate. Adhesion was allowed to occur for 35 minutes at 37° C. The wells were then washed by gentle aspiration and pipetting with fresh saline. Fluorescence associated with the remaining adherent cells was quantified using a fluorescence plate reader at EX 485/EM 530.
Cell cultures were prepared by first splitting the stationary phase Jurkat™ cells at 1:10 on day one, and 1:2 on day two to perform assay on day 3. The cells split 1:10 on day one were split 1:4 on day 3 for a day 4 assay.
The assay plates were prepared by first making a working solution of Gibco/BRL Human Fibronectin (cat # 33016-023) in PBS++, at 10 μg/mL.
A Costar 3590 EIA plate was then coated with 50 μL/well for 2 hours at room temperature (thought it can also be left overnight at 4° C). Finally the plate was asperated and blocked with Hepes/Saline Buffer, 100 μL/well, for 1 hour at RT followed by washing three times with 150 μL of PBS++.
Compound dilutions were accomplished by preparing 1:3 serial dilutions of compounds as follows. For each plate (4 compounds/plate) 600 μL were added to 4 Bio-Rad Titertubes in a Titertube rack. Enough compound was added to each appropriate tube to give a 2× concentration using methods well known in the art. Using Falcon Flexiplates, 100 μL of Hepes/Saline buffer or human serum were added to rows B through G. A multi-channel pipetter set to 180 μL was used to with four tips spaced evenly the pipetter. Each set of four tubes was mixed 5 times and 180 μL, of 2× compound was transferred to the first column of each compound dilution in Row B, leaving Row A empty. 180 μL were added to the other wells in Row A. Serial dilutions were performed down the plate by transferring 50 μL to the next dilution and mixing 5 times, changing tips each time after mixing. Dilutions were stopped at Row F. Row G had no compound present.
A 20 μg/mL solution in Hepes/Saline buffer or human serum, of 21/6 antibody was the positive control and was set aside in a reagent trough to add to cell suspension plate.
The cell staining was accomplished by first harvesting the log-phase Jurkat™ cells by centrifugation in 50 mL tubes (1100 rpm for 5 minutes). The cells were resuspended in 50 mL PBS++, spun, and resuspend in 20 mL PBS++. The cells were stained by adding 20 μL of Calcein AM for 30 minutes R.T. The volume was brought to 50 mL with Hepes/Saline buffer and the cells were counted, spun, and resuspend to 2×10^6 cells/mL in Hepes/Saline buffer or human serum.
The compounds were incubated using the following procedure. In a new flexiplate, 65 μL of stained cells were added to Rows B through H. Then 65 μL of 2× compounds were added to the appropriate rows following the plate setup and mixed 3×. 65 μL of 2×-21/6 antibody were added to Row H and mixed 3×. Finally the plate was incubated at room temperature for 30 minutes.
Fibronectin adhesion was measured using a fluorescent plate reader at EX 485/EM 530 after the following work up procedure. After incubation, the cells were mixed 3× and 100 μL were transferred to the Fibronectin coated plates and incubated at 37° C. for about 35 minutes. Each plate was washed, row by row, by gently pipetting 100 μL of R.T. PBS++ down the sides of the wells and turning the plate 90 degrees to aspirate. This procedure was repeated for a total of 3 washes. Each well was filled with 100 μL after washing by pipetting down the side of the well. […]

[1] = Cassette dosing and serum analysis for determination of oral bioavailability; format: in vivo, Sprague Dawley (SD) rats; settings: rats, oral cassette of 6 compounds, total dose 10 mg/kg, plasma samples at 4, 8 and 12 h
Method: The oral bioavailability was screened by dosing rats with a cassette, i.e. mixture of 6 compounds per dosing solution. The cassette included 5 test articles and a standard compound, for a total dose of 10 mg/kg. Each compound/test article was converted to the sodium salt with equimolar 1 N NaOH and dissolved in water at 2 mg/mL. The cassette was prepared by mixing equal volumes of each of the six solutions. The cassette dosing solution was mixed well and then the pH was adjusted to 7.5-9. The dosing solution was prepared the day before the study and stirred overnight at room temperature.
Male Sprague Dawley (SD) rats from Charles River Laboratories, 6-8 weeks old were used in this screen. Rats were quarantined for at least one day and had continuous access to food and water. On the night before the administration of the cassette, the rats were fasted for approximately 16 h.
Four SD rats were assigned in each cassette. A single dose of the dosing solution was administered orally to each rat. The dosing volume (5 mL/kg) and time were recorded and rats were fed 2 h after dosing.
Blood samples were collected via cardiac puncture at the following time points: 4 h, 8 h and 12 h. Immediately prior to blood collection, rats were anesthetized with CO2 gas within 10-20 seconds. After the 12-hour samples were collected, the rats were euthanized via CO2 asphyxiation followed by cervical dislocation.
Blood samples were kept in heparinized microtainer tubes under sub-ambient temperature (4° C.) before they were processed. Blood samples were centrifuged (10000 rpm for 5 minutes) and plasma samples were removed and stored in a −20° C. freezer until analyzed for drug levels. Drug levels in the plasma were analyzed using the following protocol for direct plasma precipitation.
The in vivo plasma samples were prepared in a 1.5 mL 96-well plate, by adding, in order, 100 μL of the test plasma, 150 μL of methanol, followed by vortexing for 10-20 seconds. 150 μL of 0.05 ng/μL of an Internal Standard in acetonitrile were added and vortexed for 30 seconds.
The standard curve samples were prepared in a 1.5 mL 96-well plate, by adding, in order, 100 μL of control mouse plasma, followed by 150 μL of methanol and vortexing for 10-20 seconds. 150 μL of 0.05 ng/μL of an Internal Standard in acetonitrile were added and vortexed for 30 seconds. The samples were spiked with 0-200 ng (10 concentrations) of the compound of interest in 50% methanol to obtain a standard curve range of 0.5 ng/mL-2,000 ng/mL. Again, the sample was vortexed for 30 seconds.
The samples were then spun for 20-30 minutes at 3000 rpm in an Eppendorf microfuge before 80-90% of supernatant was transferred into a clean 96-well plate. The organic solvent was then evaporated until the samples were dry (under N2 at 40° C./30-60 min (ZymarkTurbovap)).
The residue was then dissolved in 200-600 L mobile phase (50% CH3OH/0.1% TFA). LC/MS/MS was then run using a PE-Sciex API-3000 triple quadurpole mass spectrometer (SN0749707), Perkin-Elmer, Series200auto-sampler, and shimadzu 10A pump. Acquisition was done with PE-Sciex Analyst (v1.1) and data analysis and quantification were accomplished using PE-Sciex Analyst (v1.1). A 5-50 μL sample volume was injected onto a reverse phase ThermoHypersil DASH-18 column (Keystone 2.0×20 mm, 5 μm, PN: 8823025-701) using a mobile phase of 25% CH3OH, 0.1% TFA-100% CH3OH, 0.1% TFA. The run time was about 8 minutes at a flow rate of about 300 μL/minutes.
The Area Under the Curve (AUC) was calculated using the linear trapezoidal rule from t=0 to the last sampling time tx (see Handbook of Basic Pharmacokinetics, Wolfgang A. Ritschel and Gregory L. Kearns, 5th ed, 1999). AUC^0−+tx=S((Cn+Cn+1)/2))·(tn+1−tn)[(μg/mL)h]
In the case of the cassette dosing paradigm, samples at 4, 8 and 12 h post extravascular dosing, the AUC was calculated from t=0 to t=12 h.

T1 sequence (P13612 34-1032): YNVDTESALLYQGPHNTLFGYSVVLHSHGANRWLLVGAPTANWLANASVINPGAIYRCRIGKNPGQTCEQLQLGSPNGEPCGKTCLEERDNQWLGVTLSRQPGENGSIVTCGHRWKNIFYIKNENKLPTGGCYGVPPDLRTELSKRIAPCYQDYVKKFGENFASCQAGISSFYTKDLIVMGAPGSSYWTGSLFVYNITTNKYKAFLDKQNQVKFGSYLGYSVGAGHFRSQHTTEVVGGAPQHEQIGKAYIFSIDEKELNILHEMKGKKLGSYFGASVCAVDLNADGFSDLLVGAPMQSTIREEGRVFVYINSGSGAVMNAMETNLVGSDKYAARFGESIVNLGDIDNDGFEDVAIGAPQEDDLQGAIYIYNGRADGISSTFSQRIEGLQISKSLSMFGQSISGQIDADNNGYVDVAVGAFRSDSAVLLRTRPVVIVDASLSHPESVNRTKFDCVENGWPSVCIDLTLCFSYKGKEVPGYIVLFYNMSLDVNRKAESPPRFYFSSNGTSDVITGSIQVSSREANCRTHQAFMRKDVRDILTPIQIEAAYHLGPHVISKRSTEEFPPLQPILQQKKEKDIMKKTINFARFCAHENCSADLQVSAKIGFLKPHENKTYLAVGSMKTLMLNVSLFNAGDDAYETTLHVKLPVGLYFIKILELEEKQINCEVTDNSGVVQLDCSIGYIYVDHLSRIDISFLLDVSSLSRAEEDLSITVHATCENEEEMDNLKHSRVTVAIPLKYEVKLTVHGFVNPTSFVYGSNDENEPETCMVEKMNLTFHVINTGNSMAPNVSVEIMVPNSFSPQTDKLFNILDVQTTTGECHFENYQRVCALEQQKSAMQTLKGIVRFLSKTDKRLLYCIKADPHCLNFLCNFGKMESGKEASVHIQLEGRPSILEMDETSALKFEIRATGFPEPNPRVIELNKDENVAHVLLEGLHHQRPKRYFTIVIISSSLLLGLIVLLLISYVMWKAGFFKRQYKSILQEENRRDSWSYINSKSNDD
T1 sequence (P05556 21-798): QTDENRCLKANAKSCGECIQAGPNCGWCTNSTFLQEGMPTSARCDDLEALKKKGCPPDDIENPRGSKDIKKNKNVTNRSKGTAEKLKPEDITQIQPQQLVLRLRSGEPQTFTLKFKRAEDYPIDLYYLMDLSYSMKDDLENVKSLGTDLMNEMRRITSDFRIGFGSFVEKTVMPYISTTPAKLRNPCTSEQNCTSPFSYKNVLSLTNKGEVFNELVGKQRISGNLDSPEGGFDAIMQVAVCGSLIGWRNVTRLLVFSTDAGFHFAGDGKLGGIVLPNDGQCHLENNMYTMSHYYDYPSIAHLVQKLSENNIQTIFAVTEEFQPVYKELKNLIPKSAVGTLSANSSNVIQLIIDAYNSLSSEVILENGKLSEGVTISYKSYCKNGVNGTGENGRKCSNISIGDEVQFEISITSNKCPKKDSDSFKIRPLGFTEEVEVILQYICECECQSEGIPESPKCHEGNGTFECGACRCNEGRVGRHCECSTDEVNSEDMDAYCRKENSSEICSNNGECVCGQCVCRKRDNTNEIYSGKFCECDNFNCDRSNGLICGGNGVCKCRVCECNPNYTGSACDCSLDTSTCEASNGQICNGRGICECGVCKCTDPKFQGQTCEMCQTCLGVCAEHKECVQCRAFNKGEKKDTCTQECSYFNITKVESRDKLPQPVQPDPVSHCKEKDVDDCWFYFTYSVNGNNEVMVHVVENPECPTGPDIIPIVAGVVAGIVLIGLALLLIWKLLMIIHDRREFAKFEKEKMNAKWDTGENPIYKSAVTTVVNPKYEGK

| Substance | IC50, Cell Adhesion to Human Plasma Fibronectin (With human serum) (α4β1 Integrin) [µg/mL] | IC50, Cell Adhesion to Human Plasma Fibronectin (Without the human serum) (α4β1 Integrin) [µg/mL] | AUC (average AUC 0-12 h) [1] |
| --- | --- | --- | --- |
| 2-{2-diethylamino-5-[(2,3-difluorobenzenesulfonyl)ethylamino]pyrimidin-4-ylamino}-3-(4-dimethylcarbamoyloxyphenyl)propionic acid [Example 26] | 0.01848 | 0.001 | 0.3392 (μg/mL)h |
| 2-{2-diethylamino-5-[(2,4-difluorobenzenesulfonyl)ethylamino]pyrimidin-4-ylamino}-3-(4-dimethylcarbamoyloxyphenyl)propionic acid [Example 18] | 0.025 | 0.002 | 0.2578 (μg/mL)h |
| 2-{2-diethylamino-5-[(2,4-difluorobenzenesulfonyl)methylamino]pyrimidin-4-ylamino}-3-(4-dimethylcarbamoyloxyphenyl)propionic acid [Example 17] | 0.024 | 0.001 | 1.0075 (μg/mL)h |
| 2-{2-diethylamino-5-[(2,5-difluorobenzenesulfonyl)methylamino]pyrimidin-4-ylamino}-3-(4-dimethylcarbamoyloxyphenyl)propionic acid [Example 25] | 6.72 | 0.006 | 0.4559 (μg/mL)h |
| 2-{2-diethylamino-5-[(3,4-dichlorobenzenesulfonyl)methylamino]pyrimidin-4-ylamino}-3-(4-dimethylcarbamoyloxyphenyl)propionic acid [Example 4] | 0.4 | 0.004 | 0.5965 (μg/mL)h |
| 2-{2-diethylamino-5-[(3,4-difluorobenzenesulfonyl)ethylamino]pyrimidin-4-ylamino}-3-(4-dimethylcarbamoyloxyphenyl)propionic acid [Example 12] | 0.06 | 0.003 | 0.8447 (μg/mL)h |
| 2-{2-diethylamino-5-[(3,5-dichlorobenzenesulfonyl)ethylamino]pyrimidin-4-ylamino}-3-(4-dimethylcarbamoyloxyphenyl)propionic acid [Example 20] | 0.07751 | 0.005114 | 0.0536 (μg/mL)h |
| 2-{2-diethylamino-5-[(3,5-dichlorobenzenesulfonyl)methylamino]pyrimidin-4-ylamino}-3-(4-dimethylcarbamoyloxyphenyl)propionic acid [Example 19] | 0.08535 | 0.003393 | 0.0697 (μg/mL)h |
| 2-{2-diethylamino-5-[(3,5-difluorobenzenesulfonyl)ethylamino]pyrimidin-4-ylamino}-3-(4-dimethylcarbamoyloxyphenyl)propionic acid [Example 16] | 0.06707 | 0.001035 | 0.1721 (μg/mL)h |
| 2-{2-diethylamino-5-[(3,5-difluorobenzenesulfonyl)methylamino]pyrimidin-4-ylamino}-3-(4-dimethylcarbamoyloxyphenyl)propionic acid [Example 15] | 0.1243 | 0.000915 | 0.2098 (μg/mL)h |
| 2-{2-diethylamino-5-[(3-fluorobenzenesulfonyl)methylamino]pyrimidin-4-ylamino}-3-(4-dimethylcarbamoyloxyphenyl)propionic acid [Example 7] | 0.5869 | 0.000821 | 0.717 (μg/mL)h |
| 2-{2-diethylamino-5-[(chlorobenzenesulfonyl)ethylamino]pyrimidin-4-ylamino}-3-(4-dimethylcarbamoyloxyphenyl)propionic acid [Example 13] | 0.075 | 0.004 | 1.5806 (μg/mL)h |
